Our source for the IC50 and Ki values is patent US11103511B2, “Substituted indolo[2,1-b]quinazolines as inhibitors of tryptophan dioxygenase and indoleamine 2,3-dioxygenase 1” (FUDAN UNIVERSITY, priority 2017, dated 2021).

The target of experiment [1] is T1, IDO2 (Homo sapiens, UniProt Q6ZQW0).
T1 construct: made in house
T1 sequence (Q6ZQW0 1-407): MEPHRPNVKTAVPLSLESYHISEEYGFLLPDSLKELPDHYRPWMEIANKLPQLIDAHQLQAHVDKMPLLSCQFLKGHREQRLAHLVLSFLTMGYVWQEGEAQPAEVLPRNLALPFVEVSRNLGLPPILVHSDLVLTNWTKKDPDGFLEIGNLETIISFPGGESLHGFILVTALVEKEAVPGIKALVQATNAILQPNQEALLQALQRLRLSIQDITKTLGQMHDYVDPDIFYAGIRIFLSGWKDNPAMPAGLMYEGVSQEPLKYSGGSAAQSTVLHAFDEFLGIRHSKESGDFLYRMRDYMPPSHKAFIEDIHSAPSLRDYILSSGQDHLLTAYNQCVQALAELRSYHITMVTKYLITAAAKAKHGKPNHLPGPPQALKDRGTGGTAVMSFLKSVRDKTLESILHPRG
Description: Half effective inhibitory concentration IC50 (enzyme level) of IDO2. To be noted: human IDO2, pH 7.5, read-out: IC50 enzymatic IDO2. The experiment is classed as biochemical. The procedure: After the mixed solution was in water bath at 37° C. for 5 min, IDO2 was added to mixed solution and reacted at 37° C. for 30 min. After the enzymatic reaction was completed, 200 μL of 30% (w/v) trichloroacetic acid was added to terminate the reaction. Then the reaction mixture was heated in a 65° C. water bath for 15 min to make the reaction product transform from N-formyl-kynurenine to kynurenine, and centrifuged at […] for 10 min. 100 μL of supernatant was draw and mixed with equal volume of 2‰ (w/v) p-dimethylaminobenzaldehyde in acetic acid completely.

For experiment [2], the target named is T2, hTDO (Homo sapiens, UniProt P48775).
T2 construct: made in house
T2 sequence (P48775 whole entry): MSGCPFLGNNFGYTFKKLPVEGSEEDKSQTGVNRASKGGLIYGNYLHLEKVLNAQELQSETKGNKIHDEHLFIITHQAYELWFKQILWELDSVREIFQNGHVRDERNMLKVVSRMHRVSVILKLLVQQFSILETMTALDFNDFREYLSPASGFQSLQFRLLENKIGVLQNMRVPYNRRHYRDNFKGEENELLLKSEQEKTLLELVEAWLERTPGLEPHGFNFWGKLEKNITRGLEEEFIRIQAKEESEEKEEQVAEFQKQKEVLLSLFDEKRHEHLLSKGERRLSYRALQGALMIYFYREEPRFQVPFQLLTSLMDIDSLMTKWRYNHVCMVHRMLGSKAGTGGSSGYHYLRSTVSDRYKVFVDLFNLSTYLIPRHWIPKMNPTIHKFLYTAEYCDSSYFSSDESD
The experiment is described as follows: Half effective inhibitory concentration IC50 (enzyme level) of TDO. To be noted: pH 7.0, NI means of no inhibitory activity, read-out: IC50 enzymatic TDO. Format: biochemical. As to the method:
The nucleotide sequences of IDO1, IDO2, and TDO have been disclosed. The active IDO1, IDO2, and TDO in the Examples are human IDO1, IDO2, and TDO, and can be prepared by conventional molecular cloning methods.
In a 500 μL of standard detection system, 50 mmol/L potassium phosphate buffer (pH 7.0), 200 μg/mL catalase, 40 mmol/L ascorbic acid, 20 μmol/L methylene blue, substrate L-tryptophan with suitable concentration and hTDO inhibitors to be tested were mixed. After the mixed solution was warmed in water bath at 37° C. for 5 min, hTDO was added to react at 37° C. for 30 min. After the enzymatic reaction was completed, […] (w/v) trichloroacetic acid was added to terminate the reaction. Then the reaction mixture was heated in a 65° C. water bath for 15 min to make the reaction product transform from N-formyl-kynurenine to kynurenine, and centrifuged at […] for 10 min. 100 μL of supernatant was draw and mixed with equal volume of 2‰ (w/v) p-dimethylaminobenzaldehyde in acetic acid completely. The kynurenine can reacted with the solution and turned the mixed solution to yellow, and the absorbance was measured at 492 nm by microplate reader. The inhibitory rate was plotted against the inhibitor concentration, and the IC50 value was calculated by modified Karber method, the experimental results were shown in Table 1.

For experiment [3], the target named is T2, hTDO. The experiment is described as follows: Half effective inhibitory concentration IC50 (cell) of TDO, transfected HEK293 cells. The experiment is classed as cell-based. To be noted: HEK293 cells transfected with pcDNA3.1(+)-hTDO, 5 h; NI means of no inhibitory activity; read-out: IC50 Cellular TDO. As to the method: The nucleotide sequences of IDO1, IDO2, and TDO have been disclosed. The active IDO1, IDO2, and TDO in the Examples are human IDO1, IDO2, and TDO, and can be prepared by conventional molecular cloning methods. HEK293 cell line was cultured in DMEM high-sugar medium containing 10% fetal bovine serum in a 37° C., 5% CO2 incubator. The cells were blown evenly into 6-well plates, and transfected when the cells grew to 80%-90% fusion. The operation was carried out according to the instructions of Lipofectamine 2000 while improved slightly: the serum-containing medium was draw out and the cells were washed twice with PBS, and 1500 μL of serum-free medium was added to each well. […] The cells were cultured in 37° C., 5% CO2 incubator for 4-6 h, and then the medium was changed into DMEM medium containing 10% serum. […] Test compounds (including compounds of the present invention, […] and INCB023460) at different concentration gradients were added and the total volume of each well was supplemented to 200 μl with cell culture medium. After incubated for 5 h, 140 μL of supernatant was taken into another 96-well plate, 10 μL of 30% (w/v) trichloroacetic acid was added, heated at 65° C. for 15 min, and centrifuged at 13800×g for 5 minutes. 100 μL of supernatant was mixed with equal volume of 2‰ (w/v) […] acetic acid solution, the absorbance was measured at 492 nm by microplate reader after fully mixing. The experimental grouping was pcDNA3.1 (+)-hTDO transfected group (experimental group), pcDNA3.1 (+) transfected group (plasmid-empty control group), and non-transfected group (blank control group). Each group had three repeated well. The inhibitory rate was plotted against the inhibitor concentration, and the IC50 value was calculated by modified Karber method, the experimental results were shown in Table 1.

Experiment [4] deals with T1, IDO2. The experiment is described as follows: Determination of IDO2 inhibitor type and Ki value. The experiment is classed as biochemical. To be noted: [S]/V~[i] map, L-tryptophan 20-40 mM. The procedure:
(§1) The nucleotide sequences of IDO1, IDO2, and TDO have been disclosed.
After the mixed solution was in water bath at 37° C. for 5 min, 10 μL of IDO2 (about 1 μM) was added to mixed solution and reacted at 37° C. for 30 min. After the enzymatic reaction was completed, 200 μL of 30% (w/v) trichloroacetic acid was added to terminate the reaction. Then the reaction mixture was heated in 65° C. water bath for 15 min to make the reaction product transform from N-formyl-kynurenine to kynurenine, and centrifuged at […] for 10 min. 100 μL of supernatant was draw and mixed with equal volume of 2‰ (w/v) p-dimethylaminobenzaldehyde in acetic acid completely. […] The inhibitor type was determined by Dixon mapping method (1/v˜[i]); the Ki value of inhibitor was obtained by [S]/V˜[i] map.

In experiment [5] the target is T1, IDO2. Description: Half effective inhibitory concentration IC50 (cell) of IDO2, transfected U87 MG cells. The experiment is classed as cell-based. As to conditions: U87 MG cells transfected with pcDNA3.1(+)-IDO2, 24 h; read-out: IC50 Cellular IDO2. The procedure: The nucleotide sequences of IDO1, IDO2, and TDO have been disclosed. […] U87 MG cell line (ATCC No.: HTB-14) was cultured in DMEM high-sugar medium containing 10% fetal bovine serum in a 37° C., 5% CO2 incubator. The cells were blown evenly into 6-well plate, and transfected when the cells grew to 80%-90% fusion. […] The cells were cultured in 37° C., 5% CO2 incubator for 6 h, and the medium was changed into DMEM medium containing 10% serum after adherence. […] Test compounds (including compounds of the present invention, […] and D-1-MT) at different concentration gradients were added and the total volume of each well was supplemented to 200 μl with cell culture medium containing L-tryptophan (200 μM of final concentration, sterilized by filtration). After incubated for 24 h, 140 μL of supernatant was taken into another 96-well plate, 10 μL of 30% (w/v) trichloroacetic acid was added, heated at 65° C. for 15 min, and centrifuged at 13800×g for 5 minutes. […] The experimental grouping was pcDNA3.1 (+)-IDO2 transfected group (experimental group), pcDNA3.1 (+) transfected group (empty plasmid control group), and non-transfected group (blank control group). Each group had three repeated well. The inhibitory rate was plotted against the inhibitor concentration, and the IC50 value was calculated by modified Karber method.

Experiment [6] addresses T3, IDO1 (Homo sapiens, UniProt P14902). The experiment is described as follows: Cellular IC50 of IDO1. The experiment is classed as cell-based.
From the text: as §1
(§2) The IC50 test of IDO1 can be performed with reference to existing methods in the art, such as the method described in Chinese Patent NO.

The target in experiment [7] is T3, IDO1. The experiment is described as follows: IC50 (enzyme level) of IDO1. The experiment is classed as biochemical. As to conditions: read-out: IC50 enzymatic IDO1.
From the text: as §1, §2

Experiment [8] has as its target T3, IDO1. Description: Ki value of IDO1. Format: biochemical.
From the text: as §1, §2

[9] abbreviates: cellular, read-out: IC50 Cellular IDO1.

pIC50, pKi: −log10 of the molar value.

T3 sequence (P14902 whole entry): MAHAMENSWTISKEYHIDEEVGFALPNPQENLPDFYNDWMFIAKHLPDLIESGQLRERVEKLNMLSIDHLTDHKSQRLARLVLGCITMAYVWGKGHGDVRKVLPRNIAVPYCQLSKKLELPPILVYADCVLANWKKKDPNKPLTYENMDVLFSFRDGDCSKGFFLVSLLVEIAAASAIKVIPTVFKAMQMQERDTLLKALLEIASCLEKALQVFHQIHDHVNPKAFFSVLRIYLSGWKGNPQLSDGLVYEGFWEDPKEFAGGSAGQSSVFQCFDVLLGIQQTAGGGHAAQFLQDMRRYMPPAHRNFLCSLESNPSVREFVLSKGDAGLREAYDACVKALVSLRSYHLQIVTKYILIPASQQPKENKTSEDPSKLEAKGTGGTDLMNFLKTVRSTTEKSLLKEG

By pIC50 is commonly meant the IC50 on a negative log10 scale, so that one unit is a factor of ten. What is called pKi is the negative decadic logarithm of the Ki, by convention in mol/L. High values mean a small Ki, low ones a large Ki. Take `CN1CCN(Cc2ccc3nc4n(c(=O)c3c2)-c2ccc(F)cc2C4=O)CC1` [1a]: the pIC50 on IDO2 [1] was 4.73; at hTDO [2], 6.12; on hTDO [3], 7.03; on IDO2 [5], 4.73; on IDO1 [6] it was 7.66. This compound showed a pKi at IDO2 [4] of 5.20.

For `O=C1c2cc(F)ccc2-n2c1nc1ccc(CN3CCNCC3)cc1c2=O` [1b], the negative-log IC50 (pIC50) at IDO2 [1] was 4.50; at hTDO [2], 6.06; at hTDO [3], 7.04; on IDO2 [5], 5.45. On IDO2 [4], the pKi is 5.71.

`CC(C)(C)OC(=O)N1CCN(Cc2ccc3nc4n(c(=O)c3c2)-c2ccc(F)cc2C4=O)CC1` [1c]: the pIC50 at IDO2 [1] is 4.20; at hTDO [2], 6.35; on hTDO [3] it was 7.17; on IDO2 [5] it was 5.09; against IDO1 [6], 6.88. The negative logarithm of the Ki (pKi) at IDO2 [4] is 5.21.

Turning to `CN1CCN(Cc2ccc3nc4n(c(=O)c3c2)-c2ccccc2C4=O)CC1` [1d], the pIC50 at IDO2 [1] was 4.33; at hTDO [2], 5.62; on hTDO [3], 6.74; on IDO2 [5], 4.63; at IDO1 [6] (setting [9]), 6.75. At IDO2 [4], this compound gave a pKi of 5.05.

`CN(C)Cc1ccc2nc3n(c(=O)c2c1)-c1ccc(F)cc1C3=O` [1e]: the negative logarithm of the IC50 (pIC50) is 4.85 on IDO2 [1], 6.39 at hTDO [2], 7.20 at hTDO [3] and 5.42 at IDO2 [5]. The compound further showed a negative-log Ki (pKi) at IDO2 [4] of 5.36.

For `O=C1c2cc(F)ccc2-n2c1nc1ccc(CN3CCOCC3)cc1c2=O` [1f], the pIC50 is 4.40 at IDO2 [1], 6.06 on hTDO [2], 7.15 at hTDO [3] and 4.78 at IDO2 [5]. Besides, at IDO2 [4], the pKi was 4.76.

Take `O=C1c2cc(Cn3cc(-c4ccccc4)nn3)ccc2-n2c1nc1ccccc1c2=O` [3a]: the negative-log IC50 (pIC50) was 4.01 on IDO2 [1]; 4.34 on IDO1 [7]; 4.33 on hTDO [2]; 6.16 at hTDO [3]; 4.32 on IDO2 [5]; 6.56 on IDO1 [6] (setting [9]). The compound also had a negative-log Ki (pKi) at IDO1 [8] of 3.99.

Regarding `O=C1c2cc(Cn3cc(-c4ccccc4)nn3)ccc2-n2c1nc1ccc(F)cc1c2=O` [3b], the negative-log IC50 (pIC50) at IDO2 [1] is 4.00; at IDO1 [7] it was 4.30; on hTDO [2] it was 4.09; at hTDO [3], 5.86; on IDO2 [5] it was 4.30; at IDO1 [6] (setting [9]) it was 6.47. Further, the negative-log Ki (pKi) at IDO1 [8] was 4.02.

As to `O=C1c2cc(F)ccc2-n2c1nc1ccc(Cn3cc(-c4ccccc4)nn3)cc1c2=O` [3c], the negative logarithm of the IC50 (pIC50) was 4.08 on IDO2 [1]; 4.41 on IDO1 [7]; 4.40 on hTDO [2]; 6.71 on hTDO [3]; 4.38 at IDO2 [5]; 6.73 at IDO1 [6] (setting [9]). The compound also gave a pKi at IDO1 [8] of 4.20.

For the compound `Cc1ccc2nc3n(c(=O)c2c1)-c1ccc(Cn2cc(-c4ccccc4)nn2)cc1C3=O` [3d, 8-(4-phenyl-1H-1,2,3-triazol-1-methylene) -2-methyltryptanthrin], the negative-log IC50 (pIC50) at IDO2 [1] was 3.87; on IDO1 [7], 4.08; at hTDO [2], 4.05; on hTDO [3], 5.84; on IDO2 [5] it was 4.17; at IDO1 [6] (setting [9]) it was 6.26. This compound also gave a pKi on IDO1 [8] of 4.01.

In the case of `O=C1c2cc(Cn3cc(-c4ccccc4)nn3)ccc2-n2c1nc1ccc(Br)cc1c2=O` [3e, 8-(4-phenyl-1H-1,2,3-triazol-1-methylene) -2-bromotryptanthrin], the pIC50 at IDO2 [1] is 3.99; at IDO1 [7], 4.39; at hTDO [2], 4.35; at hTDO [3], 6.15; on IDO2 [5], 4.29; on IDO1 [6] (setting [9]), 6.70.

As to `O=C1c2cc(Cn3cc(-c4ccccc4)nn3)ccc2-n2c1nc1ccc(Cl)cc1c2=O` [3f, 8-(4-phenyl-1H-1,2,3-triazol-1-methylene) -2-chlorotryptanthrin], the pIC50 on IDO2 [1] was 3.90; at IDO1 [7], 4.37; at hTDO [2], 4.30; at hTDO [3] it was 6.15; at IDO2 [5], 4.19; at IDO1 [6] (setting [9]), 6.61.
